The results in this text go back to the SangsterLogP compilation.

Each structure is given as a SMILES string.

This data set in a line: method code SF, from DOI: 10.2478/s11696-010-0084-9.
A word on the logP: it is the decadic logarithm of the partition coefficient of the neutral form, usually between octanol and water. A higher logP goes with a more lipophilic compound. Take `O=C(NCc1ccccc1)c1ccccc1O`: the logP was found to be 2.52. For `Cc1cccc(C(=O)NCc2ccccn2)c1O`, the logP turned out to be 2.09. As for `O=C(NCc1ccccc1)c1cc(Br)cc(Br)c1O`, the logP was 4.18. On to `O=C(NCc1ccccn1)c1ccc(Cl)cc1O`, for which the log partition coefficient (logP) was 2.16. As for `O=C(NCc1cccnc1)c1ccccc1O`, the figure is 1.18; as for `O=C(NCc1cccnc1)c1cc(F)ccc1O`, 1.34. In turn, `Cc1ccc(C(=O)NCc2ccccn2)c(O)c1` registered a logP of 2.09.

Turning to `O=C(NCc1ccccc1)c1cc(Cl)ccc1O`, the logP amounted to 3.08. As for `O=C(NCc1ccccn1)c1cc(Cl)ccc1O`, the figure is 2.16; as for `O=C(NCc1ccccc1)c1ccc(Cl)cc1O`, 3.08; as for `COc1cccc(C(=O)NCc2cccnc2)c1O`, 1.06.

`Cc1cccc(C(=O)NCc2cccnc2)c1O` came in with a logP of 1.67. As for `O=C(NCc1ccccc1)c1cc(Br)ccc1O`, the figure is 3.53; as for `O=C(NCc1ccccn1)c1cc(F)ccc1O`, 1.76; as for `O=C(NCc1cccnc1)c1cc(Br)ccc1O`, 2.01.

In turn, `O=C(NCc1ccccc1)c1cc(Cl)cc(Cl)c1O` gave a logP of 3.64. As for `Cc1ccc(C(=O)NCc2cccnc2)c(O)c1`, the figure is 1.67.

For `O=C(NCc1cccnc1)c1cc(Br)cc(Br)c1O`, the logP stood at 2.84. For the molecule `O=C(NCc1cccnc1)c1cc(Cl)cc(Cl)c1O`, the logP was 2.3. The result for `COc1cccc(C(=O)NCc2ccccc2)c1O` reads 2.39; that for `O=C(NCc1cccnc1)c1ccc(Cl)cc1O`, 1.74.

The molecule `O=C(NCc1ccccn1)c1cc(Br)ccc1O` returned a logP of 2.43. The molecule `O=C(NCc1cccnc1)c1cc(Cl)ccc1O` yielded a logP of 1.74. As for `COc1ccc(C(=O)NCc2cccnc2)c(O)c1`, the figure is 1.06; as for `O=C(NCc1ccccn1)c1cc(Br)cc(Br)c1O`, 3.26.

Take `COc1cccc(C(=O)NCc2ccccn2)c1O`: the logP came out at 1.48.
